The text below walks through data of patent publication US20210137945A1, “METHOD FOR TREATING A CANCER ASSOCIATED WITH THE ACTIVATION OF GALECTIN-1” (TRINEO BIOTECHNOLOGY CO. LTD, priority 2019, published 2021).

Holding throughout (format): cell-based
The subject of experiment [1] is ovarian cancer cells (i.e., ES-2 cells). As to the kind of experiment: MTT assay of cell activity, ES-2 cells. Conditions: treated at least 48 hrs. As for the experimental part:
Ovarian cancer cell ES-2 and myeloma cell line ARH-77 were used in the present disclosure. Cells was cultured and maintained in Dulbecco's modified Eagle media (DMEM) supplemented with 10% fetal bovine serum (FBS), 100 IU/ml penicillin, […] streptomycin, 2 mM glutamine, non-essential amino acids and sodium pyruvate in 5% CO2 at 37° C. Cells were grown and maintained in Petri dishes (each was 10 cm in diameter) until they reached 80% confluence, and then were subject to cell passages. Briefly, cells were first washed with phosphate buffer solution (PBS, 3 ml) once, then treated with 0.05% Trypsin/0.025% EDTA solution (1 mL) for 5 min so that the attached cells become suspended. […]
50 μL of the MTT stock solution (5 mg MTT dissolved in 1 ml of sterile PBS) was added to each well, and 50 μL of the MTT stock solution was added to 500 μL of medium alone and used as a negative control. […] Aliquots (450 μl) from each sample were taken to a new well of 48-well culture plate, adding […], DMSO, mixing thoroughly using the pipette and reacted at 37° C. for 20 min and absorbance was measured at 570 nm.
The effects of the TN-GL-01 composition of example 1.1 on ovarian cancer cells (i.e., ES-2 cells) were evaluated by MTT assay in accordance with procedures described in the “Material and Methods” section.

A further experiment has as its system galectin-1. The experiment is described as follows: Western blot analysis of galectin-1 expression in ES-2 cells. Particulars: western blot (FIG. 2). As for the experimental part:
Samples were respectively subjected to SDS-PAGE, transferred to PVDF membranes. These blots were blocked with 5% nonfat milk powder in TBS-0.1% Tween-20 for 30 minutes, followed by incubation with primary antibodies at 4° C. overnight and then horseradish peroxidase-conjugated secondary antibodies (Amersham Biosciences, Piscataway). Imaging of bands was performed using Pierce ECL Western Blotting Substrate (Thermo Fisher Scientific) and ImageQuant LAS-4000 (GE Healthcare).
In this example, the effects of TN-GL-01 composition on the expression of galectin-1 in ERK (extracellular-signal-regulated kinase) pathway was investigated via western blot analysis. […] Thus, it was concluded that the present TN-GL-01 composition exerted its function through suppression of galectin-1.

A further experiment has as its system myeloma ARH-77 cells. As to the kind of experiment: MTT assay of myeloma ARH-77 cells treated with chemotherapeutic drugs alone or combined. Conditions: for IC50: ARH-77 cells, chemotherapeutic agent alone (control). How it is done:
Ovarian cancer cell ES-2 and myeloma cell line ARH-77 were used in the present disclosure. Cells was cultured and maintained in Dulbecco's modified Eagle media (DMEM) supplemented with 10% fetal bovine serum (FBS), 100 IU/ml penicillin, […] streptomycin, 2 mM glutamine, non-essential amino acids and sodium pyruvate in 5% CO2 at 37° C. Cells were grown and maintained in Petri dishes (each was 10 cm in diameter) until they reached 80% confluence, and then were subject to cell passages. Briefly, cells were first washed with phosphate buffer solution (PBS, 3 ml) once, then treated with 0.05% Trypsin/0.025% EDTA solution (1 mL) for 5 min so that the attached cells become suspended. The suspended cells were harvested and 2 mL fresh culture media were added therein to neutralize any remaining activity of trypsin. Cell density was adjusted by adding appropriate amounts of culture medium to the cell suspension, which was then used to seed the culture plates. The plates were then returned to the incubator, and cultured in accordance with the steps described above.
Cells were seeded in 96-well plates with a density of 3,000 cells/well and cultured in accordance with the procedures described above. On the day when cell activity analysis was to be conducted, cells were first treated with various concentrations of the triterpenoids of the present disclosure, imatinib or gefitinib for at least 48 hrs, before subjecting them to MTT assay.
50 μL of the MTT stock solution (5 mg MTT dissolved in 1 ml of sterile PBS) was added to each well, and 50 μL of the MTT stock solution was added to 500 μL of medium alone and used as a negative control. Each sample was incubated at 37° C. for 4 hours. Aliquots (450 μl) from each sample were taken to a new well of 48-well culture plate, adding […], DMSO, mixing thoroughly using the pipette and reacted at 37° C. for 20 min and absorbance was measured at 570 nm.
Results are summarized in Tables 1 to 3, and FIGS. 3 and 4.
If no significance existed between the expected and observed values, the effect is termed“additivity (p>0.05)”. […] The expected value was determined by multiplying the survival rate of each drug in specific dose. The obtained value and value of each survival rate were measured by MMT assay (FIG. 3 and FIG. 4).

The structures appear in SMILES notation.

Take `C/C(=C/CC[C@@H](C)[C@H]1CC[C@@]2(C)C3=CC[C@H]4C(C)(C)C(=O)CC[C@]4(C)C3=CC[C@]12C)C(=O)O` [GAS, ganoderic acid S]: in experiment [1], the “50% inhibition of ES-2 cells (IC50)” value came to 58.3 µg/mL. Further, the “expression of galectin-1” value in the experiment with galectin-1 was “effective in suppressing the expression of galectin-1”.
`COc1cccc2c1C(=O)c1c(O)c3c(c(O)c1C2=O)C[C@@](O)(C(=O)CO)C[C@@H]3O[C@H]1C[C@H](N)[C@H](O)[C@H](C)O1` [Doxorubicin, doxorubicin]: the “Cell survival rate of the single drug” value was determined as 0.58 in the experiment on myeloma ARH-77 cells (ARH-77, Table 2, Doxorubicin 100 nM alone); 0.66 with myeloma ARH-77 cells (ARH-77, Table 3, Doxorubicin 250 nM alone); 0.66 in the experiment with myeloma ARH-77 cells (ARH-77, Table 3, Doxorubicin 500 nM alone). Further, the IC50 with myeloma ARH-77 cells (Homo sapiens) stood at 99 nM.
Regarding `CC(=O)O[C@H]1C(=O)[C@@]2(C)[C@H]([C@H](OC(=O)c3ccccc3)[C@]3(O)C[C@H](OC(=O)[C@H](O)[C@@H](NC(=O)c4ccccc4)c4ccccc4)C(C)=C1C3(C)C)[C@]1(OC(C)=O)CO[C@@H]1C[C@@H]2O` [Paclitaxel, paclitaxel], the “Cell survival rate of the single drug” value in the experiment on myeloma ARH-77 cells (ARH-77, Table 2, Paclitaxel 62.5 nM alone) was found to be 0.68; in the experiment on myeloma ARH-77 cells (ARH-77, Table 2, Paclitaxel 125 nM alone) it was 0.50; in the experiment with myeloma ARH-77 cells (ARH-77, Table 3, Paclitaxel 40 μM alone), 0.65.
For `CC(=O)O[C@@H](C/C=C(\C)C(=O)O)[C@@H](C)[C@H]1C[C@H](OC(C)=O)[C@@]2(C)C3=CC[C@H]4C(C)(C)[C@H](OC(C)=O)CC[C@]4(C)C3=CC[C@]12C` [GAT, ganoderic acid T], the “50% inhibition of ES-2 cells (IC50)” value in experiment [1] came out at 24.5 µg/mL. The “expression of galectin-1” value in the experiment on galectin-1 was “effective in suppressing the expression of galectin-1”.
With `COc1cc([C@@H]2c3cc4c(cc3[C@@H](O[C@@H]3O[C@@H]5CO[C@@H](C)O[C@H]5[C@H](O)[C@H]3O)[C@H]3COC(=O)[C@H]23)OCO4)cc(OC)c1O` [Etoposide, etoposide], the IC50 in the experiment with myeloma ARH-77 cells is 415 nM.
In the case of `N.N.[Cl][Pt][Cl]` [Cisplatin, cisplatin], the “Cell survival rate of the single drug” value came out at 0.65 in the experiment on myeloma ARH-77 cells (ARH-77, Table 2, Cisplatin 3 μM alone) and 0.69 in the experiment with myeloma ARH-77 cells (ARH-77, Table 3, Cisplatin 3 μM alone).
